# Columns and labels:
# Assay in all cases: In vitro antimicrobial efficacy using time kill procedure (ASTM E 2315-03)
# Format in all cases: cell-based
# Conditions in all cases: 1.0% concentration
# E. Coli—ATCC No. 8739 = system: E. Coli—ATCC No. 8739
# Method: (§1) The following target organisms were included in the tests: E. Coli—ATCC No. 8739; Staphylococcus Aureus—ATCC No. 6538 and Candida Albicans—ATCC No. 10231. The initial inoculum counts for all the organisms were between 10^6 and 10^8 CFUs/ml.
# (§2) The testing procedure was according to ASTM E 2315-03 standards and protocols. The exposure times were 2 minutes and 10 minutes. Each test concentration was tested in duplicate and each sample was plated in duplicate.
# (§3) The log reduction expresses the efficacy of the antimicrobial formulation against the target organism. The final mean number of Colony Forming Units (CFUs) per ml of test solution at a given exposure time log 10 is calculated as follows:
# (§4) Mean No. of CFUs/ml ═Na=C/(n×D×V)
# (§5) • C=Total number of colonies counted on all plates • V=Sample volume used to prepare the pour plate (1 ml) • D=Dilution factor (0.01) • n=Number of plates taken into account • a=exposure time
# (§6) The mean log reduction is calculated using the equation: […]
# (§7) Mean log reduction log 10(NI×0.01)−log 10 (Na)
# (§8) Where NI is the initial organism count
# [1] = system: Staphylococcus Aureus—ATCC No. 6538
# Method: as §1, §2, §3, §4, §5, §6, §7, §8
# [2] = system: Candida Albicans—ATCC No. 10231
# Method: as §1, §2, §3, §4, §5, §6, §7, §8
smiles,measurement,setting,value
"CC(O)C(=O)O (stereo not drawn) [LA 88, Lactic Acid 88%]","2 minute log reduction, E. Coli",E. Coli—ATCC No. 8739; 2 minutes exposure,2.36
same,"10 minute log reduction, E. Coli",E. Coli—ATCC No. 8739; 10 minutes exposure,2.41
same,"2 minute log reduction, S. Aureus",[1]; 2 minutes exposure,<2.0
same,"10 minute log reduction, S. Aureus",[1]; 10 minutes exposure,<2.0
same,"2 minute log reduction, Candida Albicans",[2]; 2 minutes exposure,2.69
same,"10 minute log reduction, Candida Albicans",[2]; 10 minutes exposure,2.79

# — patent US20110028546A1, “NOVEL ANTIMICROBIAL FORMULATIONS INCORPORATING ALKYL ESTERS OF FATTY ACIDS AND NANOEMULSIONS THEREOF” (priority 2006, published 2011)
